Data on one compound can be found in PMC7316994, “In Vitro Pharmacological Profile of a New Small Molecule Bradykinin B2 Receptor Antagonist” (Frontiers in Pharmacology, 2020).

Assay [1] concerns Glycine, strychnine-sensitive. As to the kind of experiment: radioligand binding (Table S2). As to conditions: [3H] Strychnine, Wistar rat spinal cord.
Another assay concerns the target T1, Serotonin 5-HT1B (Rattus norvegicus, UniProt P28564).
T1 construct: tissue Eurofins; host or cells: rat cerebral cortex
The experiment in a line: radioligand binding (Table S2). As to conditions: [125I] CYP (+ 30 µM isoproterenol), Rat cerebral cortex.

The next assay has as its target T2, Prostanoid EP4 (Homo sapiens, UniProt P35408).
T2 construct: host or cells: Chem-1 cells
As to the kind of experiment: radioligand binding (Table S2). Particulars: [3H] Prostaglandin E2, Human recombinant Chem-1 cells.

Assay [2] concerns the target T3, Growth hormone secretagogue (GHS, ghrelin) (Homo sapiens, UniProt Q92847).
T3 construct: host or cells: CHO-K1 cells
As to the kind of experiment: radioligand binding (Table S2). Particulars: [125I] Ghrelin (human), Human recombinant CHO-K1 cells.

Another assay concerns the target T4, PDGFRα kinase (Homo sapiens, UniProt P16234).
T4 construct: Eurofins (assay provider)
As to the kind of experiment: enzyme assay (Table S2). In kind it is biochemical. As to conditions: ATP + Ulight-TK peptide (100 nM), LANCE.

Assay [3] addresses T5, Glutamate, metabotropic, mGlu5 (Homo sapiens, UniProt P41594).
T5 construct: host or cells: CHO-K1 cells
As to the kind of experiment: radioligand binding (Table S2). Particulars: [3H] Quisqualic acid, Human recombinant CHO-K1 cells.

The test system of another assay is Kainate. As to the kind of experiment: radioligand binding (Table S2). As to conditions: [3H] Kainic acid, Rat cerebral cortex.
Assay [4] relates to Sodium Na+ channel (site 2). The class given is binding. As to conditions: [3H] Batrachotoxinin, Rat cerebral cortex.
The test system of another assay is Purinergic receptor P2X. The experiment in a line: radioligand binding (Table S2). As to conditions: [3H] α,β-MeATP, Rat urinary bladder.
For another assay, the target named is Cannabinoid CB2 (Homo sapiens, UniProt P34972). The experiment in a line: radioligand binding (Table S2). As to conditions: read-out: % Inhibition @ 10 µM.
The next assay concerns the target T6, human myc-B2 receptor (Homo sapiens, UniProt P30411).
T6 construct: expressed in transfected cells
T6 sequence (P30411 1-391): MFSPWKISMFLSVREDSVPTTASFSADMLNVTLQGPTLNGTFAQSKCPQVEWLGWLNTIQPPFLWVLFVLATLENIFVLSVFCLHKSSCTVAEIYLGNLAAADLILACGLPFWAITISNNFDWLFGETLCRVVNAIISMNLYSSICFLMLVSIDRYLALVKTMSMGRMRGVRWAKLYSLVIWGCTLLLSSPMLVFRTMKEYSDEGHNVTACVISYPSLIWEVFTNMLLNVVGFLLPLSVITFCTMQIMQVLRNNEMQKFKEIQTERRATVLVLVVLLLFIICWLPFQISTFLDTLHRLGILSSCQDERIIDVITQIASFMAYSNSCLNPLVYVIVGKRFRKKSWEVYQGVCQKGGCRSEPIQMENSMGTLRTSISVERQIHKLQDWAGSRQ
As to the kind of experiment: c-Fos immunoblot, HEK 293a cells stably expressing myc-B2 receptor. In kind it is cell-based. As to conditions: BK 10 nM. An excerpt: Supplementary Methods: Immunoblots for c-Fos signaling
The construction of myc-tagged B2 receptor expression vector containing the human receptor sequence has been recently reported, as well as the derivation of HEK293a cell lines that stably express the construction (Charest-Morin et al., 2015). Immunoblotting experiments, conducted as described (Koumbadinga et al., 2010), were used to study the effect of selected antagonists on BK-induced signaling. Briefly, HEK 293a cells stably expressing the human myc-B2 receptor were stimulated with BK agonists for 60 min at 37°C, with or without a pretreatment with the antagonist (applied 15 min before BK). Total cell extracts were immunoblotted to detect c-Fos expression using the K-25 rabbit polyclonal antibodies (Santa Cruz Biotechnology, Dallas, TX; dilution 1:50,000). In these experiments, β-actin was used as a loading control and was detected using the monoclonal anti-β-actin antibody, clone AC-15 (Sigma-Aldrich; dilution 1:50,000).

The target of the next assay is T7, Bombesin BB2 (Homo sapiens, UniProt P30550).
T7 construct: host or cells: HEK-293 cells
As to the kind of experiment: radioligand binding (Table S2). Particulars: [125I] [Tyr4]-bombesin, Human recombinant HEK-293 cells.

Another assay concerns the target T8, Monoamino-oxidase MAO-A (Rattus norvegicus, UniProt P21396).
T8 construct: Rat cerebral cortex; from tissue; host or cells: rat cerebral cortex
The experiment in a line: radioligand binding (Table S2). Particulars: [3H] Ro 41-1049, Rat cerebral cortex.

Assay [5] deals with Gamma-aminobutyric acid GABAB1A (Homo sapiens, UniProt Q9UBS5). As to the kind of experiment: radioligand binding (Table S2). As to conditions: read-out: % Inhibition @ 10 µM.
In another assay the target is T9, Opioid κ (KOP) (Rattus norvegicus, UniProt P34975).
T9 construct: host or cells: CHO cells
The experiment in a line: radioligand binding (Table S2). As to conditions: [3H] U 69593, Rat recombinant CHO cells.

In assay [6] the target is T10, myc-tagged human B2 receptor (Homo sapiens, UniProt P30411).
T10 construct: expressed in transfected cells
The experiment in a line: antibody internalization assay, HEK 293a cells. The class given is cell-based. Particulars: BK 100 nM; antagonist 1 nM to 1 μM, 15 min before BK. How it is done: B2 receptor-mediated transport of immune complexes constructed at the cell surface was previously reported ([Bawolak et al., 2011]). Intact HEK 293a cells stably expressing the N-terminally myc-tagged B2 receptor construction (human sequence, [Charest-Morin et al., 2015]) were treated with the monoclonal anti-myc antibody (clone 4A6) conjugated with AlexaFluor-488 (Millipore, dilution 1:500) added to the culture medium. Cells were further incubated at 37°C. Without rinsing, a selected antagonist or their DMSO vehicle was added 5 min later, and BK (100 nM) or its saline vehicle 15 min later. After an additional 30 min incubation period at 37°C, cells were rinsed 3 times with Hank's balanced salt solution (Multicell Wisent, St. Bruno, Canada) and photographed in transmission and epifluorescence using an Olympus BX51 microscope coupled to a CoolSnap HQ digital camera (filters for AlexaFluor 488: excitation 460–500 nm, emission 510–560 nm).

A further assay addresses Galanin GAL1 (Homo sapiens, UniProt P47211). The experiment in a line: radioligand binding (Table S2). Particulars: [125I] Galanin, Human recombinant HEK-293 cells.
The target of a further assay is T11, Vasopressin V2 (Homo sapiens, UniProt P30518).
T11 construct: expressed in transfected cells; host or cells: CHO cells
As to the kind of experiment: functional assay, cAMP HTRF, CHO cells (Table S2). As to conditions: read-out: % inhibition of reference agonist response @ 10 µM (antagonist effect), AVP (0.03 nM). The class given is cell-based.

T1 sequence (P28564 whole entry): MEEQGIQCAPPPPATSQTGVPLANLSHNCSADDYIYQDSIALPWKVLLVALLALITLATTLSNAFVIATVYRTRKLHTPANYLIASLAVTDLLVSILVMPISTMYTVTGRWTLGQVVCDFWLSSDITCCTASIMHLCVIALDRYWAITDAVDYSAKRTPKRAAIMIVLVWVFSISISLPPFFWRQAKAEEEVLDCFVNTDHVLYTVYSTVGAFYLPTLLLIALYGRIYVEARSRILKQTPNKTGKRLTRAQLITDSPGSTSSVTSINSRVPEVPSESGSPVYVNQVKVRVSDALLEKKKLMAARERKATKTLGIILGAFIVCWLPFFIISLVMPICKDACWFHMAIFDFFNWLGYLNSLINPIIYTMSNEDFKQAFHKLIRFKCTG
T4 sequence (P16234 24-1089): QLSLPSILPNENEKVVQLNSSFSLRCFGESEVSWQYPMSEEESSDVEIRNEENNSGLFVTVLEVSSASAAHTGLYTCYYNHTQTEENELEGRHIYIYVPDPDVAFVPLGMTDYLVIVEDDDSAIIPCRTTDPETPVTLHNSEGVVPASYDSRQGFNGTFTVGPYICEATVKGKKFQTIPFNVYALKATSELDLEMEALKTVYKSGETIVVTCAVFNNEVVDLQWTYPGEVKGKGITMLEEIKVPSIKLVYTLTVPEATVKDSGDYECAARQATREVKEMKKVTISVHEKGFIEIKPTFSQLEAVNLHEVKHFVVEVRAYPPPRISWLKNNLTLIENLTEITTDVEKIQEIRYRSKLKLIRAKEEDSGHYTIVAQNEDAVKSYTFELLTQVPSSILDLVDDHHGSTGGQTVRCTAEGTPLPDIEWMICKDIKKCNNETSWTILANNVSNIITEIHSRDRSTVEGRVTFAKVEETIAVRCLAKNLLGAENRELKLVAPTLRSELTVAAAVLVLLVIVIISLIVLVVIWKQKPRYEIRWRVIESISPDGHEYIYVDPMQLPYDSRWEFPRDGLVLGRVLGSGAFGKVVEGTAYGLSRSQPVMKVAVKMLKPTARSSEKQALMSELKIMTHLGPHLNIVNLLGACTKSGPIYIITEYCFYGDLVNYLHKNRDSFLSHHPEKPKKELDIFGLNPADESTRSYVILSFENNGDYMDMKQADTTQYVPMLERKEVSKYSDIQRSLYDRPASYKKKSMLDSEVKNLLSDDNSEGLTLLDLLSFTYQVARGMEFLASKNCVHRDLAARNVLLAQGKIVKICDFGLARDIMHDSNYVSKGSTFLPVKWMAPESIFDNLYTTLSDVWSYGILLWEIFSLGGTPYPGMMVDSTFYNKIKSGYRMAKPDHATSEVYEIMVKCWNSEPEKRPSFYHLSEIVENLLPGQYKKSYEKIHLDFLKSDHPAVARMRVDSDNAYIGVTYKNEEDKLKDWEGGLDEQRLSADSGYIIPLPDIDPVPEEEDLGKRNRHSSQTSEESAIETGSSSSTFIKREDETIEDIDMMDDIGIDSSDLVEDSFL
T3 sequence (Q92847 whole entry): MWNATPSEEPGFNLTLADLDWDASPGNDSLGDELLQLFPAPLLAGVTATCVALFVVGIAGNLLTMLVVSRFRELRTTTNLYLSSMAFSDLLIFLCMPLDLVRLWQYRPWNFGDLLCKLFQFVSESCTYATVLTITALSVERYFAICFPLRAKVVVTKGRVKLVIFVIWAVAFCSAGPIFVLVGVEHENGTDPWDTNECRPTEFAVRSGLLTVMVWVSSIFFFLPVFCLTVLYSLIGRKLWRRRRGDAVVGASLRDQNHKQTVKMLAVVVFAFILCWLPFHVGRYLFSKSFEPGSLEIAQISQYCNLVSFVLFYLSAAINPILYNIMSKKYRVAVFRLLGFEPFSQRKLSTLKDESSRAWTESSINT
Sequence of Gamma-aminobutyric acid GABAB1A (Q9UBS5 15-961 limits assumed): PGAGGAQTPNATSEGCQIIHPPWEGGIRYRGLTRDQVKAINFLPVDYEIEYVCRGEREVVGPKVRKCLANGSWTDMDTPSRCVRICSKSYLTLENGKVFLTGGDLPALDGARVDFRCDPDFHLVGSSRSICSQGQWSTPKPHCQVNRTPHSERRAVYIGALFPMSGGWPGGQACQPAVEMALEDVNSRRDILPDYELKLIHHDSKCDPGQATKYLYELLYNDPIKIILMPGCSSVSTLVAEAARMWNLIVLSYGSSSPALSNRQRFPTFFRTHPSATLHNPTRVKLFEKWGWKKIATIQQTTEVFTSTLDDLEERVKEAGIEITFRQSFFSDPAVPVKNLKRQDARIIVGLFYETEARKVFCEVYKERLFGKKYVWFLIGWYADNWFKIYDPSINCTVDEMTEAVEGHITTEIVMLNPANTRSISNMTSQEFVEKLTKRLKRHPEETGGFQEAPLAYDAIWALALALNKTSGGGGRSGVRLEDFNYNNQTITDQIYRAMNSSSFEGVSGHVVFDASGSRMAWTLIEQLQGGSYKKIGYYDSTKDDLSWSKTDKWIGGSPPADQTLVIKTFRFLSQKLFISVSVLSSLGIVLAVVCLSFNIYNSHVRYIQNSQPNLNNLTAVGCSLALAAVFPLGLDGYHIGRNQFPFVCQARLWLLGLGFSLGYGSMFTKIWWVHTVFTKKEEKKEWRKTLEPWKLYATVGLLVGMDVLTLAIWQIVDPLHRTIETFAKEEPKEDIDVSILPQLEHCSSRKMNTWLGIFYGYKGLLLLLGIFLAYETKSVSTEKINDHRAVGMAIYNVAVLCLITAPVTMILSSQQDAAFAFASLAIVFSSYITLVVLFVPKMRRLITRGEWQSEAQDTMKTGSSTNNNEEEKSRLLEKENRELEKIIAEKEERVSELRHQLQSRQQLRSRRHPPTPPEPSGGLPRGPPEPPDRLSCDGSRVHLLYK
T7 sequence (P30550 whole entry): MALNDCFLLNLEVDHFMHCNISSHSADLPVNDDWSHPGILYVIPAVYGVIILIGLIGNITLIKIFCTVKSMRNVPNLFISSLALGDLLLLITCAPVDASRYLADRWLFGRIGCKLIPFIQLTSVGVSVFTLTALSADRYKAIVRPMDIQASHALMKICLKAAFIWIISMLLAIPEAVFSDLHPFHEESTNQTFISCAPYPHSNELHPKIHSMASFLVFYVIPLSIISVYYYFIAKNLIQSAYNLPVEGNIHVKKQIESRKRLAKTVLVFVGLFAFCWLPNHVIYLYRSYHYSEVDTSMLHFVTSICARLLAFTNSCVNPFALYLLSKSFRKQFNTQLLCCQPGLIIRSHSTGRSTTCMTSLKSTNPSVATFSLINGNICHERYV
Sequence of Cannabinoid CB2 (P34972 whole entry): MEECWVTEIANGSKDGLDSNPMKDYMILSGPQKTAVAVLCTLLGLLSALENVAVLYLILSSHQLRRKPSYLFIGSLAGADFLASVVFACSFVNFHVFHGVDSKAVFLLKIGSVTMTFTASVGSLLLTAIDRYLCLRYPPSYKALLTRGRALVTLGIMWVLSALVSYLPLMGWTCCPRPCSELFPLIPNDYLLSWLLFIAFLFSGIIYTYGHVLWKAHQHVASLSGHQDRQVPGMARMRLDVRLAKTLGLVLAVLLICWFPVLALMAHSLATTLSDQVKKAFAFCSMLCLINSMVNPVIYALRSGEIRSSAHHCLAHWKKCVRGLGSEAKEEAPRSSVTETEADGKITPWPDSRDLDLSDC
T8 sequence (P21396 whole entry): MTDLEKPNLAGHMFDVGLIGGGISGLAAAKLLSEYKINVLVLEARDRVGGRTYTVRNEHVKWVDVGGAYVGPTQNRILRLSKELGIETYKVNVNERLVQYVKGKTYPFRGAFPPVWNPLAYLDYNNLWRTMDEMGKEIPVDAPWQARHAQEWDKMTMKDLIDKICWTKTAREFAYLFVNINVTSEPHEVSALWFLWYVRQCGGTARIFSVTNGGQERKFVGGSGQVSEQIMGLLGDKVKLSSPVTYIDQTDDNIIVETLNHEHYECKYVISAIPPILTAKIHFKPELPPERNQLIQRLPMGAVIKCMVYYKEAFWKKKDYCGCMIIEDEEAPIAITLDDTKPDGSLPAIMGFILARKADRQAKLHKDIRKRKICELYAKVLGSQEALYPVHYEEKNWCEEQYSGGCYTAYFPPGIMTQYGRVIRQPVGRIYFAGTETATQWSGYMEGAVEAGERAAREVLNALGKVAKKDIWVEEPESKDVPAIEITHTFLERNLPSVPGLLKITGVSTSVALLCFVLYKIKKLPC
T9 sequence (P34975 whole entry): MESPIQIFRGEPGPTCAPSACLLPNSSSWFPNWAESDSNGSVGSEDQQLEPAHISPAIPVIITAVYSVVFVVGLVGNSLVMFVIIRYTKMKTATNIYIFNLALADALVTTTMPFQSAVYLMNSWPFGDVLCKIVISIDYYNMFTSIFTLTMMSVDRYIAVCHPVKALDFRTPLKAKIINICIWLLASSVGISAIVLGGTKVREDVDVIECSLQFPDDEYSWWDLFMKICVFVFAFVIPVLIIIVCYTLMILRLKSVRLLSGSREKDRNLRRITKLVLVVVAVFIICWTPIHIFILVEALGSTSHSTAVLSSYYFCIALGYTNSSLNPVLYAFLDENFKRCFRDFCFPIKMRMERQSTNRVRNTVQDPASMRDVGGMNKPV
T2 sequence (P35408 whole entry): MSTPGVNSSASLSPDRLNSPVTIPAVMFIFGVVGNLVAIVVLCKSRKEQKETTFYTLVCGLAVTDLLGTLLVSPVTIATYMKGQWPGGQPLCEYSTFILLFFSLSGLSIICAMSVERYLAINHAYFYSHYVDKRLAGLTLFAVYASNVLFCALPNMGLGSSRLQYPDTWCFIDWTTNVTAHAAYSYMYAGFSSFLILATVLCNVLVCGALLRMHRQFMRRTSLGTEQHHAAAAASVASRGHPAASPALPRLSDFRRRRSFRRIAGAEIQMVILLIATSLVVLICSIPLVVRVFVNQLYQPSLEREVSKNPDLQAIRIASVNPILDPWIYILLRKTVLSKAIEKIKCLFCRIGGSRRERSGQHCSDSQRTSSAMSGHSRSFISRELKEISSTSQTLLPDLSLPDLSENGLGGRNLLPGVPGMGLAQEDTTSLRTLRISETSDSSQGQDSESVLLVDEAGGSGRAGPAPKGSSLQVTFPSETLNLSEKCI

Regarding `Cc1cc(-c2ncnn2C)c2cccc(OCc3c(Cl)cc(F)cc3[C@H](C)NC(=O)COC(F)F)c2n1` [Compound 3, (S)-N-(1-(3-chloro-5-fluoro-2-((2-methyl-4-(1-methyl-1H-1,2,4-triazol-5-yl)quinolin-8-yloxy)methyl)phenyl)ethyl)-2-(difluoromethoxy)acetamide], the “% Inhibition @ 10 µM” value in assay [1] is reported as -1%; in the assay with Kainate, -4.4%; in assay [4], -3.4%; with Purinergic receptor P2X, 6.3%. The inhibition at 10 µM is -2.5% at Serotonin 5-HT1B; 3% at Prostanoid EP4; 6% in assay [2]; -2.6% on PDGFRα kinase; -8% in assay [3]; -17.7% at Cannabinoid CB2. Besides, the inhibition at 10 µM was -1.4% at Bombesin BB2; -1.3% on Monoamino-oxidase MAO-A; 8% in assay [5]; 15.4% at Opioid κ (KOP); 22.4% on Galanin GAL1; -15.1% at Vasopressin V2. The “antagonist concentration that significantly reduced the c-Fos response to BK” value on human myc-B2 receptor (60 min) is “significant effect at equimolar concentration”. Further, the “effect on BK-induced c-Fos accumulation” value at human myc-B2 receptor (co-treatment between 10 nM and 1 μM) is “inhibited this response in a concentration-dependent manner”. In addition, the “concentration with clear efficacy in inhibiting BK-induced endocytosis” value in [6] is at least 100 nM.
